Measured values: publication PMC6010089, “Isothiocyanates: cholinesterase inhibiting, antioxidant, and anti-inflammatory activity” (Journal of Enzyme Inhibition and Medicinal Chemistry, 2018)
Like-named read-outs stand apart in the source and are kept apart here.

Columns and labels:
[1] = molecular target: T1, acetylcholinesterase (AChE) (Electrophorus electricus, UniProt O42275); assay: biochemical; conditions: read-out: AChE / Inhibition (%)^a
[2] = molecular target: T1, acetylcholinesterase (AChE); assay: modified Ellman assay; assay type: biochemical; set-up: electric eel, type V-S
COX-2 [3] = molecular target: T2, COX-2 (Homo sapiens, UniProt P35354); assay: Cayman human COX-2 inhibitor screening kit, PGF2alpha ELISA; assay type: biochemical; conditions: read-out: COX-2 / Inhibition (%)^b
T2 construct: gene PTGS2
T2 sequence (P35354 18-604): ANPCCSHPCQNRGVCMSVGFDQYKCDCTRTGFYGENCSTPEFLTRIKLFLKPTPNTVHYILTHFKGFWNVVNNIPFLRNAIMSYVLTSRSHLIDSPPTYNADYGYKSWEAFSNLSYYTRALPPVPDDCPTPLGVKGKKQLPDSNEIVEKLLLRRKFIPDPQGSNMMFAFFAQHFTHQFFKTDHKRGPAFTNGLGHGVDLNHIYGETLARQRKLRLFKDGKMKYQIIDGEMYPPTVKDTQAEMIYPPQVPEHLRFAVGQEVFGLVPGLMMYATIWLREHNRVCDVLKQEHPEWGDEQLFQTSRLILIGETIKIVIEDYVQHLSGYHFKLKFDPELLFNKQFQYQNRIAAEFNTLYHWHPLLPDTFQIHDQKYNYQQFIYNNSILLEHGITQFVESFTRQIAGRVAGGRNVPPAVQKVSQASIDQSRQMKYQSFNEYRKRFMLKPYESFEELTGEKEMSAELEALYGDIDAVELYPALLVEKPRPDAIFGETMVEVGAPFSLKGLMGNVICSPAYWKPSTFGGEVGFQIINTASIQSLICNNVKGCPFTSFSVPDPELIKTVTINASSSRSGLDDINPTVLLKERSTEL

[4] = molecular target: T3, butyrylcholinesterase (BChE) (Equus caballus, UniProt P81908); assay: biochemical; conditions: read-out: BChE / Inhibition (%)^a
COX-2 [5] = molecular target: T2, COX-2; assay: biochemical; set-up: COX-2 inhibitor screening kit, 10 min preincubation, arachidonic acid 2 min, PGF2alpha ELISA at 412 nm; conditions: read-out: COX-2 / Inhibition (%)^b
Procedure: To analyse the inhibition of the COX-2 enzyme activity mediated by the selected ITCs, the COX-2 (human) inhibitor screening assay kit from Cayman was used. In summary, the COX-2 enzyme was incubated with the samples (having final concentration in the assay of 50 μM, in 96% ethanol) for 10 min at 37 °C and subsequently the reaction was initiated by adding arachidonic acid and incubating the mixture for 2 min at 37 °C. The background tubes correspond to inactivated COX-2 enzyme obtained after keeping the tubes containing enzymes in boiling water for 3 min along with sample solvent. Enzyme catalysis was blocked by adding saturated stannous chloride solution. Prostaglandin (PGF2α) release was quantified using ELISA at 412 nm. Indomethacin solution (having final concentration in the assay of 10 μM, in 96% ethanol) was used as a positive control.

[6] = molecular target: T3, butyrylcholinesterase (BChE); assay: modified Ellman assay; assay type: biochemical; set-up: from equine serum

T1 sequence (O42275 24-633): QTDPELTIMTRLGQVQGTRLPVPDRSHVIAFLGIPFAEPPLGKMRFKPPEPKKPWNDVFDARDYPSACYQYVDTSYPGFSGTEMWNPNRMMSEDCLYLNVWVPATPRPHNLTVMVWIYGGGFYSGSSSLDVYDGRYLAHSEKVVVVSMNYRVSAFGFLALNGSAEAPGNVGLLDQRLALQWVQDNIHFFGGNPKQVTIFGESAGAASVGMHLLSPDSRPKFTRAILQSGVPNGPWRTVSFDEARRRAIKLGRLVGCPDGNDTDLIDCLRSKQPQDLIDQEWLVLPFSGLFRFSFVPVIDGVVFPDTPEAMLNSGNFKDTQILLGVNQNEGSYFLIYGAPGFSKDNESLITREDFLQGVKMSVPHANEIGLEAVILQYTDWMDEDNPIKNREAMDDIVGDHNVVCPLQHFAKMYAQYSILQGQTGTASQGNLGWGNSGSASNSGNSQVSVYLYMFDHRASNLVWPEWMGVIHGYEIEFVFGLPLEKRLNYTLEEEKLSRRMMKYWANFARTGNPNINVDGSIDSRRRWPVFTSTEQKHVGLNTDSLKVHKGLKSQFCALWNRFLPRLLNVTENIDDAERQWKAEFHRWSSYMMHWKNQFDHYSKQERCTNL
T3 sequence (P81908 whole entry): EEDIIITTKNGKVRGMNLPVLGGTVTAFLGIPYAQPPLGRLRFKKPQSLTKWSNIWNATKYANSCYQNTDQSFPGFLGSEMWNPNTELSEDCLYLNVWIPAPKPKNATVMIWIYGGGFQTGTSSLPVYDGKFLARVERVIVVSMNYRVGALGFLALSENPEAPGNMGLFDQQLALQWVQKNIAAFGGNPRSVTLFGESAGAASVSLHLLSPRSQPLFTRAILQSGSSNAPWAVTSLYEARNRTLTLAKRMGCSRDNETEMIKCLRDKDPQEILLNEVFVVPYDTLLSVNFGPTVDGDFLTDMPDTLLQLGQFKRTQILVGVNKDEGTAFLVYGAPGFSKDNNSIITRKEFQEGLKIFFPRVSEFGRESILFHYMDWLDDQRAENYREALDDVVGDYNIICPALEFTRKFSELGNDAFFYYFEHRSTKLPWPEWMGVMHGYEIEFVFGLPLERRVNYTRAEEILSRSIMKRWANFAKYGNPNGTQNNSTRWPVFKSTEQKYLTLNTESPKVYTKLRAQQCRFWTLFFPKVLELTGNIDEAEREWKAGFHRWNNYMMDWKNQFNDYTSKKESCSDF

Row | Compound | inhibition at 1140 µM [1] [%] | IC50 ([2]; read-out: AChE / IC50) [µM] | inhibition at 50 µM (COX-2 [3]) [%] | inhibition at 1140 µM [4] [%] | inhibition at 50 µM (COX-2 [5]) [%] | inhibition at 1140 µM [6] [%] | IC50 [2] [µM]
1 | COc1cccc(N=C=S)c1 [compound 8, 3-Methoxyphenyl ITC] | 61.4 ± 1.6 | 1000 | – | – | – | – | –
2 | COc1ccccc1N=C=S [compound 7, 2-Methoxyphenyl ITC] | 57 ± 1.5 | 570 | 99 ± 0.7 | 19.5 ± 0.1 | – | – | –
3 | S=C=Nc1ccccc1 [compound 1, phenyl isothiocyanate] | – | – | 98.9 ± 0.3 | – | – | – | –
4 | CSCCCN=C=S [compound 11, 3-(Methylsulfanyl)propyl ITC] | 4.4 ± 0.7 | – | 48 ± 0.3 | 15.4 ± 0.3 | – | – | –
5 | Cc1ccc(N=C=S)cc1 [compound 5, 4-Methylphenyl ITC] | 58.4 ± 1.1 | – | – | – | 13.6 ± 0.8 | 40.7 ± 0.7 | 930
